ChEMBL document CHEMBL1154221, “Farinomalein, a maleimide-bearing compound from the entomopathogenic fungus Paecilomyces farinosus” (2009)

Tested on: Phytophthora sojae
Assay: Antioomycete activity against Phytophthora sojae P6497 after 48 to 96 hrs by disc diffusion method
Assay type: functional

| MIC | SMILES |
| --- | --- |
| 10 µg | C[C@@H]1[C@H](O)[C@@H](C)/C=C/C=C/C=C/C=C/C=C/C=C/C=C/[C@H](O[C@@H]2O[C@H](C)[C@@H](O)[C@H](N)[C@@H]2O)C[C@@H]2O[C@](O)(C[C@@H](O)C[C@@H](O)[C@H](O)CC[C@@H](O)C[C@@H](O)CC(=O)O[C@H]1C)C[C@H](O)[C@H]2C(=O)O [AMPHOTERICIN B] |
| 5 µg | CC(C)C1=CC(=O)N(CCC(=O)O)C1=O [FARINOMALEIN] |
